Assay results published in US20060052435A1, “Selective dopamin d3 receptor agonists for the treatment of sexual dysfunction” (priority 2001, published 2006).
Where two headings read alike, the source gives them in different places.

Key:
D1 receptor = D1 receptor (Homo sapiens, UniProt P21728); details: quoted abstract; cited from earlier work
[1] = tested on: ovariectomized, partially hormone-repleted female rats; details: 50 ug/kg P.O., 15-30 min after dosing; from 22+/−8%; cited from earlier work
male rhesus monkeys = details: 20 and 50 ug/kg P.O., evaluated for 4 hr; cited from earlier work
D2 [2] = target: T1, D2 (Homo sapiens, UniProt P14416); details: quoted abstract; cited from earlier work
ferrets = assay: 7-OH-DPAT-induced emesis in the ferret; type: in vivo; details: s.c.; minimum dose completely inhibiting emesis in all animals, n = 3
[3] = ferret, in vivo, sc
[4] = target: human recombinant D2short (hD2s) receptors (Homo sapiens, UniProt P14416); assay: inhibition of binding of [3H]-spiperone; details: n = 3-11; read-out: Affinity estimates (pKi ± s.e.m.) hD2s (converted)
[5] = unbound plasma and whole brain concentrations in anaesthetised ferrets; details: s.c. dosing at the ED100 dose, n = 1
[6] = target: human recombinant D3 (hD3) receptors (Homo sapiens, UniProt P35462, G9S); assay: inhibition of binding of [3H]-R(+)-7-OH-DPAT; details: n = 3-11
[7] = target: D3 receptors over D2 receptors (Homo sapiens, UniProt P35462); details: GTPγS assay; cited from earlier work
New Zealand rabbits = assay: male and female anaesthetised rabbit, pelvic nerve stimulation; type: in vivo
Experimental: 1.1.1 Male and Female Anaesthetised Rabbit Methodology
Male and female New Zealand rabbits (˜2.5 kg) were pre-medicated with a combination of Medetomidine (Domitor®) 0.5 ml/kg i.m., and Ketamine (Vetalar®) 0.25 ml/kg i.m. whilst maintaining oxygen intake via a face mask. The rabbits were tracheotomised using a Portex™ uncuffed endotracheal tube 3 ID., connected to ventilator and maintained at a ventilation rate of 30-40 breaths per minute, with an approximate tidal volume of 18-20 ml, and a maximum airway pressure of 10 cm H2O. Anaesthesia was then switched to Isoflurane and ventilation continued with O2 at 2 l/min. The right marginal ear vein was cannulated using a 23 G or 24 G catheter, and Lactated Ringer solution perfused at 0.5 ml/min. The rabbit was maintained at 3% Isoflurane during invasive surgery, dropping to 2% for maintenance anaesthesia. The left jugular vein was exposed, isolated and then cannulated with a PVC catheter (17 G) for the infusion of drugs and compounds.
The left groin area of the rabbit was shaved and a vertical incision was made approximately 5 cm in length along the thigh. The femoral vein and artery were exposed, isolated and then cannulated with a PVC catheter (17 G) for the infusion of drugs and compounds. Cannulation was repeated for the femoral artery, inserting the catheter to a depth of 10 cm to ensure that the catheter reached the abdominal aorta. This arterial catheter was linked to a Gould system to record blood pressure. Samples for blood gas analysis were also taken via the arterial catheter. Systolic and diastolic pressures were measured, and the mean arterial pressure calculated using the formula (diastolic×2+systolic)÷3. Heart rate was measured via the pulse oxymeter and Po-ne-mah data acquisition software system (Ponemah Physiology Platform, Gould Instrument Systems, Inc.).
A ventral midline incision was made into the abdominal cavity. The incision was about 5 cm in length just above the pubis. The fat and muscle was bluntly dissected away to reveal the hypogastric nerve which runs down the body cavity. It was essential to keep close to the side curve of the pubis wall in order to avoid damaging the femoral vein and artery which lie above the pubis. The sciatic and pelvic nerves lie deeper and were located after further dissection on the dorsal side of the rabbit. Once the sciatic nerve is identified, the pelvic nerve was easily located. The term pelvic nerve is loosely applied; anatomy books on the subject fail to identify the nerves in sufficient detail. However, stimulation of the nerve causes an increase in vaginal and clitoral blood flow in females and in intracavernosal pressure and cavernosal blood flow in males, and innervation of the pelvic region. […]

D3 = D3 (Homo sapiens, UniProt P35462); details: WO 93/23035; cited from earlier work
D2 [8] = target: T1, D2; details: WO 93/23035; cited from earlier work
[9] = target: human dopamine D2 long receptor (Homo sapiens, UniProt P14416)
Sequence of human dopamine D2 long receptor (P14416 whole entry): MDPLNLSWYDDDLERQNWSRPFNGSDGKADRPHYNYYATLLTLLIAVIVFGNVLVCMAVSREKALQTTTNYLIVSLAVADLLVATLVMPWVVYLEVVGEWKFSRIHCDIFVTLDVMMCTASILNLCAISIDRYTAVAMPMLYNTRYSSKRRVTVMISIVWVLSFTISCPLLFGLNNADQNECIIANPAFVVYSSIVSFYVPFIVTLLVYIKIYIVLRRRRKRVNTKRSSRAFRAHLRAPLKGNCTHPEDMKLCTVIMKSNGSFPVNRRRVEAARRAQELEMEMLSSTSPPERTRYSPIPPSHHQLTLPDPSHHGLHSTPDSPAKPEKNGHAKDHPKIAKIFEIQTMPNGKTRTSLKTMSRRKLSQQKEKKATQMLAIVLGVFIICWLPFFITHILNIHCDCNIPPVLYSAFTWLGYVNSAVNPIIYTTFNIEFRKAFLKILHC

T1 sequence (P14416 whole entry): as above
Sequence of D3 receptors over D2 receptors (P35462 whole entry, species assumed): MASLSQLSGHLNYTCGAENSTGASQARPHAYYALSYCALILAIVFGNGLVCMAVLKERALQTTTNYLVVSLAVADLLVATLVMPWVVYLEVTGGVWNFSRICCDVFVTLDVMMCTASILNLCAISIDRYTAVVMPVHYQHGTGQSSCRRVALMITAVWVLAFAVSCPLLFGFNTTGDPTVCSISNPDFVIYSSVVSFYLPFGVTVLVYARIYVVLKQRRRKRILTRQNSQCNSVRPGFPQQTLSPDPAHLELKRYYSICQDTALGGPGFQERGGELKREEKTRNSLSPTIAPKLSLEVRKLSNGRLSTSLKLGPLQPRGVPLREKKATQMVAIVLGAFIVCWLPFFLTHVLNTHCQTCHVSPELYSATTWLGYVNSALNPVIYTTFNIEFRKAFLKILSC
Sequence of D3 (P35462 whole entry, species assumed): as above
Sequence of D1 receptor (P21728 whole entry): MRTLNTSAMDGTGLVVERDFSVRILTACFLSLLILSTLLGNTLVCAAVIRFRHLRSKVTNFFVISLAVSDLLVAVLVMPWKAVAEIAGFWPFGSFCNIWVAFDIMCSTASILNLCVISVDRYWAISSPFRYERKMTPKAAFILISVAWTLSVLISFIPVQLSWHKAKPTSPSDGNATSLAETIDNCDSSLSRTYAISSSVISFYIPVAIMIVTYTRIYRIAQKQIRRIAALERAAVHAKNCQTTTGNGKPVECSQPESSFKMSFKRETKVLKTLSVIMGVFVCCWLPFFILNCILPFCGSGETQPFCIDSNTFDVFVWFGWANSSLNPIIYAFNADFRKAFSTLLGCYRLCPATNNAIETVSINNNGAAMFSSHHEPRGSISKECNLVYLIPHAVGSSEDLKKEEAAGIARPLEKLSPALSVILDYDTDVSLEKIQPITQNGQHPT
Sequence of human recombinant D3 (hD3) receptors (P35462 whole entry G9S): as the sequence (P35462 whole entry, species assumed) above, with G9S counted along it
Sequence of human recombinant D2short (hD2s) receptors (P14416 1-414 isoform P14416-2): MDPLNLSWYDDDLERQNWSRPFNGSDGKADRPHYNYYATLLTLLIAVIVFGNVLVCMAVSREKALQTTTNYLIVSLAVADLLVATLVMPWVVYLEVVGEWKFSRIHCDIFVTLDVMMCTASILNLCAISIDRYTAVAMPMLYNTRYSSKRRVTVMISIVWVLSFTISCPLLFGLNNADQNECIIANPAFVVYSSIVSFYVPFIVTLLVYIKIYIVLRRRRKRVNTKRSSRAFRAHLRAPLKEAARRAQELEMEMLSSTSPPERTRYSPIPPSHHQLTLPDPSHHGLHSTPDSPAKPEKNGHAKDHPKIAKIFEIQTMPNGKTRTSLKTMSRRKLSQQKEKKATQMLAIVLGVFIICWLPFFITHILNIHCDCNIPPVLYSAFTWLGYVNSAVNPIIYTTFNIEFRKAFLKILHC

SMILES: CN[C@@H]1Cc2cccc3[nH]c(=S)n(c23)C1 [PNU-142774E]
- Ki (D1 receptor): > 7000 nM
- lordosis/mounts ratio (L/M) [1]: 65+/−10%
- non-contact sexual behavior (erections, masturbation) (male rhesus monkeys): increase in sexual behavior
- Ki (D2 [2]): 7 nM

SMILES: CCc1cc(Cl)c(OC)c(C(=O)NC[C@@H]2CCCN2CC)c1O [(S)-eticlopride]
- Antagonist potency ED100 versus 7-OH-DPAT-induced emesis (ferrets): 0.03 mg/kg
- Brain conc^n [3]: 377 ng/g
- Ki [4]: 0.501 nM

SMILES: OC1(c2ccc(Cl)cc2)CCN(Cc2c[nH]c3ccccc23)CC1 [L-741,626]
- Antagonist potency ED100 versus 7-OH-DPAT-induced emesis (ferrets): 3 mg/kg
- Brain conc^n [5]: 250 ng/g
- Affinity estimates (pKi ± s.e.m.) hD3 [6]: 6.6 ± 0.24

SMILES: CCCN1CCO[C@H]2c3cc(C(N)=O)ccc3CC[C@@H]21 [Example S32504]
- selectivity for D3 receptors over D2 receptors [7]: 251 fold
- penile intracavernosal pressure and cavernosal blood flow in male rabbits (New Zealand rabbits): beneficially enhances
- vaginal and clitoral blood flow in female rabbits (New Zealand rabbits): beneficially enhances

SMILES: CCCN(CCC)CCc1cccc2c1CC(=O)N2 [Ropinirole]
- binding D3 (D3): 69 nM
- binding D2 (D2 [8]): 1380 nM
- EC50 [9]: 16.1 nM
